# Data: article PMC10096344 (Molecules, 2023)
# Columns and labels:
# [1] = test system: pyr genes (pyrA, pyrB, pyrC, pyrD, pyrE and pyrF); assay: RT-PCR (qPCR) of pyr genes; type: cell-based, Pseudomonas aeruginosa; settings: LP4C 10 μg/mL vs control
# Procedure: The total RNA was isolated from P. aeruginosa cultures, and qPCR amplification was performed according to the instrument of the quantitative PCR system (Stratagene Mx3005P, Agilent, USA); the thermal cycler was then initiated by denaturation procedure for 2 min at 93 °C followed by 40 cycles of 1 min at 93 °C and 2 min at 55 °C. The gene-specific PCR primers were listed in Supplementary Table S3. The relative expression of genes was analyzed by the 2^−ΔΔCt method with normalization to gyrB level.
# S. typhimurium TA100 = assay: Bacterial reverse mutation assay (Ames assay); type: cell-based, Salmonell typhimurium; settings: n = 3
# Procedure: (§1) A sample of 2-aminofluorene (10 μg/plate) was used for TA97, TA98, TA100 +S9 test strains, while 1,8-dihydroxyanthraquinone (60 μg/plate) was used for the TA102 +S9 test strain. The histidine was added with the same amount. The plates were incubated for 48 h at 37 °C; the number of colonies was then counted per plate.
# S. typhimurium TA98 = assay: Bacterial reverse mutation assay (Ames assay); type: cell-based, Salmonell typhimurium; settings: n = 3
# Procedure: as §1
# S. typhimurium TA102 = assay: Bacterial reverse mutation assay (Ames assay); type: cell-based, Salmonell typhimurium; settings: n = 3
# Procedure: as §1
# S. typhimurium TA97 = assay: Bacterial reverse mutation assay (Ames assay); type: cell-based, Salmonell typhimurium; settings: n = 3
# Procedure: as §1
# [2] = test system: CCC-HHM-2 (human embryonic myocardial tissue cell); assay: Cytotoxicity test, CCK-8; type: cell-based
# Procedure: (§2) Optical density was calculated by the microplate reader (BioTek flx800, Berten, USA).
# [3] = test system: HUVEC (human umbilical vein endothelial cell); assay: Cytotoxicity test, CCK-8; type: cell-based
# Procedure: as §2
# [4] = test system: P. aeruginosa (ATCC27853); assay: Transcriptome assay (RNA-seq); type: cell-based, Pseudomonas aeruginosa; settings: LP4C 10 μg/mL vs Vehicle Treatment Group
# Procedure: The RNA sequencing was performed using Illumina HiSeq4000 according to the operation instructions (Illumina, CA, USA). Differential gene expression analysis of LP4C treatment and control groups was conducted; KEGG signaling pathway analysis was performed to map the connection of multiple genes.
# [5] = test system: P. aeruginosa (ATCC27853) biofilm; assay: Bacterial biofilm formation (FITC staining, crystal violet staining); type: cell-based, Pseudomonas aeruginosa
# Procedure: The bacterial biofilm growth and measurement was performed according to our previously reported method. Briefly, P. aeruginosa (ATCC27853) was cultured in the tube with nutrient broth containing 2% (w/v) glucose, shaken at 220 rpm for 12 h at 37 °C. The suspension was diluted to 1 × 10^6 CFU/mL and added to 96-well plates, the bacteria was cultured for 24 h at 37 °C for biofilm growth and the planktonic bacterial of each well was removed by PBS rinsing three times. To observe the biofilm formation, the fluorescein isothiocyanate (FITC) was added into the plates and incubated for 2 h at 37 °C; the labeled biofilm was then washed by PBS and visualized under the fluorescence microscopy (Olympus CKX53, Tokyo, Japan). The measurement of biofilm was performed according to the following procedure: the mature biofilm was fixed with 150 μL methanol and left to air dry, then stained with 150 μL of 1% (w/v) crystal violet solution for 15 min at room temperature. The plate was rinsed with PBS three times and 150 μL of glacial acetic acid was added to each well; the optical density was measured at 630 nm optical density using a microplate reader (Bio-Tek ELX800, Berten, USA).
# [6] = test system: P. aeruginosa (ATCC27853); assay: Anti-bacterial activity, inhibition zone diameter on agar; type: cell-based, Pseudomonas aeruginosa; settings: LP4C 5, 10, 50, 100, 200 μg/mL
# Procedure: P. aeruginosa (ATCC27853) was cultured in 3 mL LB culture medium, shaken at 220 rpm for 12 h at 37 °C and diluted to 1 × 10^6 CFU/mL. The culture disk was coated with 1% agar, and 100 μL bacterial suspension was added to the agar in the disk evenly. […] LP4C or reference antibiotics were then added in each hole. The disk was cultured for 12–16 h at 37 °C; the result was then observed and the inhibition zone diameter was measured.
# C57BL/6 mice = type: in vivo
# Procedure: All animals were closely observed every day for three weeks. The body weight and toxic effects were monitored and the survival rate was calculated. At the end of experiment, the survival mice were euthanized; vital organs, including heart, liver, lung, kidney and spleen, were then excised, weighed and preserved for histopathological observation.
# [7] = Pharmacokinetics measurement; type: in vivo; settings: SD rats; for plasma half-life: single dose
# [8] = 200 μg/mL vs anti-biofilm concentration of LP4C
# [9] = LP4C under 200 μg/mL, 24 h, vs vehicle
compound,measurement,setting,value
N#CC1=C(N)Oc2c(c(=O)oc3ccccc23)C1c1cc(C(F)(F)F)cc(C(F)(F)F)c1 (stereo not shown) [LP4C],expression of pyr genes,[1],could inhibit the expression of pyr genes significantly
same,number of bacterial revertant colonies,"S. typhimurium TA100; LP4C 50 μg/plate, TA100, +S9, mean ± SD",130 ± 7.68
same,number of bacterial revertant colonies,"S. typhimurium TA100; LP4C 50 μg/plate, TA100, −S9, mean ± SD",117 ± 5.96
same,number of bacterial revertant colonies,"S. typhimurium TA100; LP4C 200 μg/plate, TA100, +S9, mean ± SD",133 ± 7.34
same,number of bacterial revertant colonies,"S. typhimurium TA100; LP4C 200 μg/plate, TA100, −S9, mean ± SD",116 ± 6.42
same,number of bacterial revertant colonies,"S. typhimurium TA100; LP4C 1000 μg/plate, TA100, +S9, mean ± SD",131 ± 6.75
same,number of bacterial revertant colonies,"S. typhimurium TA100; LP4C 1000 μg/plate, TA100, −S9, mean ± SD",120 ± 8.33
same,number of bacterial revertant colonies,"S. typhimurium TA100; LP4C 2000 μg/plate, TA100, +S9, mean ± SD",132 ± 6.95
same,number of bacterial revertant colonies,"S. typhimurium TA100; LP4C 2000 μg/plate, TA100, −S9, mean ± SD",120 ± 5.71
same,number of bacterial revertant colonies,"S. typhimurium TA100; LP4C 5000 μg/plate, TA100, +S9, mean ± SD",130 ± 5.69
same,number of bacterial revertant colonies,"S. typhimurium TA100; LP4C 5000 μg/plate, TA100, −S9, mean ± SD",122 ± 7.67
same,number of bacterial revertant colonies,"S. typhimurium TA98; LP4C 50 μg/plate, TA98, +S9, mean ± SD",32 ± 3.6
same,number of bacterial revertant colonies,"S. typhimurium TA98; LP4C 50 μg/plate, TA98, −S9, mean ± SD",26 ± 2.2
same,number of bacterial revertant colonies,"S. typhimurium TA98; LP4C 200 μg/plate, TA98, +S9, mean ± SD",33 ± 4.1
same,number of bacterial revertant colonies,"S. typhimurium TA98; LP4C 200 μg/plate, TA98, −S9, mean ± SD",26 ± 4.8
same,number of bacterial revertant colonies,"S. typhimurium TA98; LP4C 1000 μg/plate, TA98, +S9, mean ± SD",32 ± 4.7
same,number of bacterial revertant colonies,"S. typhimurium TA98; LP4C 1000 μg/plate, TA98, −S9, mean ± SD",25 ± 5.4
same,number of bacterial revertant colonies,"S. typhimurium TA98; LP4C 2000 μg/plate, TA98, +S9, mean ± SD",32 ± 5.8
same,number of bacterial revertant colonies,"S. typhimurium TA98; LP4C 2000 μg/plate, TA98, −S9, mean ± SD",26 ± 6.7
same,number of bacterial revertant colonies,"S. typhimurium TA98; LP4C 5000 μg/plate, TA98, +S9, mean ± SD",31 ± 5.2
same,number of bacterial revertant colonies,"S. typhimurium TA98; LP4C 5000 μg/plate, TA98, −S9, mean ± SD",24 ± 3.5
same,number of bacterial revertant colonies,"S. typhimurium TA102; LP4C 50 μg/plate, TA102, +S9, mean ± SD",276 ± 11.2
same,number of bacterial revertant colonies,"S. typhimurium TA102; LP4C 50 μg/plate, TA102, −S9, mean ± SD",260 ± 10.3
same,number of bacterial revertant colonies,"S. typhimurium TA102; LP4C 200 μg/plate, TA102, +S9, mean ± SD",281 ± 9.36
same,number of bacterial revertant colonies,"S. typhimurium TA102; LP4C 200 μg/plate, TA102, −S9, mean ± SD",271 ± 5.68
same,number of bacterial revertant colonies,"S. typhimurium TA102; LP4C 1000 μg/plate, TA102, +S9, mean ± SD",279 ± 10.6
same,number of bacterial revertant colonies,"S. typhimurium TA102; LP4C 1000 μg/plate, TA102, −S9, mean ± SD",267 ± 8.35
same,number of bacterial revertant colonies,"S. typhimurium TA102; LP4C 2000 μg/plate, TA102, +S9, mean ± SD",280 ± 11.3
same,number of bacterial revertant colonies,"S. typhimurium TA102; LP4C 2000 μg/plate, TA102, −S9, mean ± SD",262 ± 8.44
same,number of bacterial revertant colonies,"S. typhimurium TA102; LP4C 5000 μg/plate, TA102, +S9, mean ± SD",273 ± 12.6
same,number of bacterial revertant colonies,"S. typhimurium TA102; LP4C 5000 μg/plate, TA102, −S9, mean ± SD",256 ± 9.21
same,number of bacterial revertant colonies,"S. typhimurium TA97; LP4C 50 μg/plate, TA97, +S9, mean ± SD",142 ± 7.13
same,number of bacterial revertant colonies,"S. typhimurium TA97; LP4C 50 μg/plate, TA97, −S9, mean ± SD",123 ± 5.92
same,number of bacterial revertant colonies,"S. typhimurium TA97; LP4C 200 μg/plate, TA97, +S9, mean ± SD",140 ± 8.55
same,number of bacterial revertant colonies,"S. typhimurium TA97; LP4C 200 μg/plate, TA97, −S9, mean ± SD",122 ± 7.42
same,number of bacterial revertant colonies,"S. typhimurium TA97; LP4C 1000 μg/plate, TA97, +S9, mean ± SD",142 ± 5.96
same,number of bacterial revertant colonies,"S. typhimurium TA97; LP4C 1000 μg/plate, TA97, −S9, mean ± SD",119 ± 8.52
same,number of bacterial revertant colonies,"S. typhimurium TA97; LP4C 2000 μg/plate, TA97, +S9, mean ± SD",140 ± 6.47
same,number of bacterial revertant colonies,"S. typhimurium TA97; LP4C 2000 μg/plate, TA97, −S9, mean ± SD",120 ± 8.53
same,number of bacterial revertant colonies,"S. typhimurium TA97; LP4C 5000 μg/plate, TA97, +S9, mean ± SD",141 ± 7.65
same,number of bacterial revertant colonies,"S. typhimurium TA97; LP4C 5000 μg/plate, TA97, −S9, mean ± SD",112 ± 9.83
same,non-toxic concentration relative to anti-biofilm concentration,[2]; [8],at least 40 times
same,cell viability (CCK-8),[2]; [9],the cell viability was not affected
same,non-toxic concentration relative to anti-biofilm concentration,[3]; [8],at least 40 times
same,cell viability (CCK-8),[3]; [9],the cell viability was not affected
same,most enriched pathway of DEGs (transcriptome),[4],the DEGs number of pyrimidine metabolism was the most enriched
same,"biofilm formation, crystal violet staining",[5]; LP4C 5 μg/mL to 200 μg/mL,could inhibit the biofilm formation in a dose-dependent manner
same,"formation of biofilm, FITC staining",[5]; LP4C 5-200 μg/mL vs Vehicle Treatment Group,suppressed the formation of biofilm in a dose-dependent manner
same,concentration at which biofilm formation was still inhibited,[5]; inhibited even at this concentration,5 µg/mL
same,growth inhibition / bactericidal activity (inhibition zone),[6],no bactericidal activity
same,survival rate vs Control,"C57BL/6 mice; 20 mg/kg to 320 mg/kg intragastric, three weeks",not a significant difference in the survival rate
same,death and toxicity signs,"C57BL/6 mice; 20, 40 and 80 mg/kg intragastric, three-week period",no death and obvious toxicity sign was observed
same,"histopathological changes (H&E) of heart, liver, lung, kidney and spleen","C57BL/6 mice; intragastric, vs control groups","no obvious pathological change was observed, except the slight hemorrhagic phenomena that occurred in the liver section in the 320 mg/kg LP4C Treatment Group"
same,time during which blood concentration increased after administration,[7]; intragastric 10 mg/kg,≤ 4 h
same,bioavailability,[7]; intragastric 10 mg/kg vs intravenous 5 mg/kg,46.35%
same,plasma half-life,[7]; intragastric 10 mg/kg,11 ± 1.26 h
same,time during which serum concentration declined rapidly,[7]; intravenous 5 mg/kg,10 to 60 min
same,plasma half-life,[7]; intravenous 5 mg/kg,14 ± 3.05 h
